Measurements reported in patent publication US11123432B2, “Antimicrobial insect repellent composition” (YEDITEPE UNIVERSITESi, priority 2016, dated 2021).
Like-named read-outs stand apart in the source and are kept apart here.

Experiments:
[1] = test system: Penicillium expansium; details: Qin et al. (2007); cited from earlier work
[2] = test system: enteric bacteria; details: Bailey et al. (1980); cited from earlier work
[3] = test system: Adenovirus Type 5 (Av-5); assay type: cell-based, Human adenovirus type 5 Adenoid 75 strain; details: for reduction in virus titer: AV-5 (Table 4), ratio 1/1, 20° C., clean and contaminated media; for Ratio of reduction in virus titer: EBAAP; for EBAAP virüs titer: untreated virus titer 6.0
[4] = test system: Poliovirus Type 1 (PV-1); assay type: cell-based, Poliovirus type 1 Chat strain; details: for reduction in virus titer: PV-1 (Table 5), ratio 1/1, 20° C., clean and contaminated media; for Ratio of reduction in virus titer: EBAAP; for EBAAP virus titer: untreated virus titer 5.0
[5] = result of many toxicity experiments; cited from earlier work
[6] = AV-5, 5 minutes, contaminated medium
[7] = AV-5, 60 minutes, contaminated medium
[8] = PV-1, 5 minutes, contaminated medium
[9] = PV-1, 60 minutes, contaminated medium

[K+].[K+].[O-]B1OB2OB([O-])OB(O1)O2 [potassium tetraborate]
minimum concentration preventing micelle growth [1]: 0.1%

OB(O)O [boric acid]
antibacterial activity [2]: has antibacterial activity

CCCCN(CCC(=O)OCC)C(C)=O [EBAAP, Ethyl Butyl acetylaminopropionate]
reduction in virus titer ([3]; 5 minutes): 2 log | reduction in virus titer ([3]; 60 minutes): 4 log | Ratio of reduction in virus titer ([3]; AV-5, 5 minutes, clean medium): 2.0 Logarithmic TCID50 | EBAAP virüs titer ([3]; AV-5, 5 minutes, clean medium): 4.0 Logarithmic TCID50 | Ratio of reduction in virus titer [3, 6]: 2.0 Logarithmic TCID50 | EBAAP virüs titer [3, 6]: 4.0 Logarithmic TCID50 | Ratio of reduction in virus titer ([3]; AV-5, 60 minutes, clean medium): 4.0 Logarithmic TCID50 | EBAAP virüs titer ([3]; AV-5, 60 minutes, clean medium): 2.0 Logarithmic TCID50 | Ratio of reduction in virus titer [3, 7]: 4.0 Logarithmic TCID50 | EBAAP virüs titer [3, 7]: 2.0 Logarithmic TCID50 | active against virus ([3]; AV-5, used undiluted, 20° C., 60 minute application): 99.9% | reduction in virus titer ([4]; 5 minutes): 2 log | reduction in virus titer ([4]; 60 minutes): 4 log | Ratio of reduction in virus titer ([4]; PV-1, 5 minutes, clean medium): 2.0 Logarithmic TCID50 | EBAAP virus titer ([4]; PV-1, 5 minutes, clean medium): 3.0 Logarithmic TCID50 | Ratio of reduction in virus titer [4, 8]: 2.0 Logarithmic TCID50 | EBAAP virus titer [4, 8]: 3.0 Logarithmic TCID50 | Ratio of reduction in virus titer ([4]; PV-1, 60 minutes, clean medium): 4.0 Logarithmic TCID50 | EBAAP virus titer ([4]; PV-1, 60 minutes, clean medium): 1.0 Logarithmic TCID50 | Ratio of reduction in virus titer [4, 9]: 4.0 Logarithmic TCID50 | EBAAP virus titer [4, 9]: 1.0 Logarithmic TCID50 | active against virus ([4]; PV-1, used undiluted, 20° C., 60 minute application): 99.9% | irritation on the skin [5]: does not cause irritation on the skin
